Literature values in patent US20120093797A1, “COMBINED USE OF CREATINE PHOSPHATE AND CREATINE PHOSPHOKINASE FOR TREATMENT OF ARTERIOSCLEROSIS” (ARTCELL INVEST LTD., priority 2009, published 2012).

Half-life of CP: 4 to 7 min
SMILES: CN(CC(=O)O)C(=N)NP(=O)(O)O [CP, 2-[(amino-phosphonoimino-methyl)-methyl-amino]acetic acid]
